ChEMBL document CHEMBL1159151, “Synthesis and evaluation of cytotoxic activity of novel arylsulfonylimidazolidinones” (Bioorg Med Chem Lett, 1996)

Experiments:
[1] = tested on: A549; experiment: In vitro cytotoxic activity against human lung carcinoma A549 cell line; type: functional, cell-based
[2] = tested on: SK-MEL-2; experiment: In vitro cytotoxic activity against human melanoma SK-MEL-2 cell line; type: functional, cell-based

Row | Compound | IC50 [1] [µM] | IC50 [2] [µM]
1 | Cc1ccc(S(=O)(=O)N2C(=O)NCC2c2ccccc2)cc1 (stereo not given) | > 316 | > 316
2 | O=C1NCC(c2ccc(Br)cc2)N1S(=O)(=O)c1ccc2c(c1)CCC2 (stereo not given) | > 237 | 119
3 | Cc1ccc(C2CNC(=O)N2S(=O)(=O)c2ccc(C)cc2)cc1 (stereo not given) | > 303 | 234
4 | O=C1NC(c2ccc(Cl)cc2)CN1S(=O)(=O)c1ccc2c(c1)CCC2 (stereo not given) | 86.3 | 64.3
5 | Cc1ccc(C2CNC(=O)N2S(=O)(=O)c2ccc(Cl)cc2)cc1 (stereo not given) | 266 | 255
6 | Cc1ccc(C2CNC(=O)N2S(=O)(=O)c2ccccc2)cc1 (stereo not given) | 157 | 144
7 | O=C(Nc1ccc(Cl)cc1)NS(=O)(=O)c1ccc2c(c1)CCC2 [SULOFENUR] | 11.3 | 12.9
8 | O=C1NCC(c2ccccc2)N1S(=O)(=O)c1ccc2c(c1)CCC2 (stereo not given) | 58.5 | 39
9 | Cc1ccc(C2CN(S(=O)(=O)c3ccc(C)cc3)C(=O)N2)cc1 (stereo not given) | > 303 | > 303
10 | O=C1NC(c2ccc(Br)cc2)CN1S(=O)(=O)c1ccc2c(c1)CCC2 (stereo not given) | 33.9 | 32.6
11 | O=C1NCC(c2ccc(Cl)cc2)N1S(=O)(=O)c1ccc2c(c1)CCC2 (stereo not given) | > 265 | 161
12 | Cc1ccc(C2CNC(=O)N2S(=O)(=O)c2ccc3c(c2)CCC3)cc1 (stereo not given) | 90.3 | 88.6
13 | Cc1ccc(C2CN(S(=O)(=O)c3ccccc3)C(=O)N2)cc1 (stereo not given) | > 316 | > 316
14 | Cc1ccc(C2CN(S(=O)(=O)c3ccc(Cl)cc3)C(=O)N2)cc1 (stereo not given) | 158 | 123
15 | Cc1ccc(S(=O)(=O)N2CC(c3ccccc3)NC2=O)cc1 (stereo not given) | 12.5 | 2.53
16 | Cc1ccc(S(=O)(=O)N2C(=O)NCC2c2ccc(Br)cc2)cc1 (stereo not given) | 67 | 80
17 | O=C1NC(c2ccc(Br)cc2)CN1S(=O)(=O)c1ccc(Cl)cc1 (stereo not given) | 161 | 111
18 | Cc1ccc(C2CN(S(=O)(=O)c3ccc4c(c3)CCC4)C(=O)N2)cc1 (stereo not given) | 99.2 | 72.5
19 | O=C1NC(c2ccccc2)CN1S(=O)(=O)c1ccc2c(c1)CCC2 (stereo not given) | 0.91 | 
20 | O=C1NC(c2ccccc2)CN1S(=O)(=O)c1ccccc1 (stereo not given) | 145 | 116
21 | O=C1NCC(c2ccc(Br)cc2)N1S(=O)(=O)c1ccc(Cl)cc1 (stereo not given) | 84 | 106
22 | O=C1NC(c2ccccc2)CN1S(=O)(=O)c1ccc(Cl)cc1 (stereo not given) | 9.47 | 1.43
23 | Cc1ccc(S(=O)(=O)N2CC(c3ccc(Br)cc3)NC2=O)cc1 (stereo not given) | > 253 | > 253
